Publication PMC8155856, “Synthesis and Characterization of Radiogallium-Labeled Cationic Amphiphilic Peptides as Tumor Imaging Agents” (Cancers, 2021)
Non-standard residues stand in square brackets, D forms with d. Residues, ends and D or L forms follow the SMILES beside them. *: point of attachment. FITC = O=C1OC2(c3ccc(O)cc3Oc3cc(O)ccc32)c2ccc(NC(=S)*)cc21; NOTA = O=C(O)CN1CCN(CC(=O)O)CCN(CC(=O)*)CC1; Ahx = NCCCCCC(=O)O

Columns and labels:
[1] = system: KB cells; assay: Cellular uptake of FITC-CAPs; assay type: cell-based; settings: 1 μM, 37 °C, 2 h post-incubation, heparin/PBS wash, lysate fluorescence; mean ± SEM, n = 7–13
Method: (§1) Epidermoid carcinoma KB cells were provided by DS Pharma Biomedical Co., Ltd. (Suita, Japan). Mouse fibroblast-like 3T3-L1 cells were obtained from the JCRB Cell Bank (Tokyo, Japan). KB cells were cultured in Eagle’s minimal essential medium supplemented with 10% fetal bovine serum. The 3T3-L1 cells were grown in Dulbecco’s modified Eagle’s medium supplemented with 10% bovine calf serum. All media were supplemented with 100 IU/mL penicillin and 100 μg/mL streptomycin. The cells were maintained in a humidified atmosphere containing 5% CO2 at 37 °C.
(§2) Each cell line was grown to confluence in a 12-well plate and washed with PBS. FITC-CAPs (1 μM) or ^67Ga-NOTA-CAPs (1.0 kBq) (Figure S2C) in a growing medium (0.6 mL) were added to each cell and incubated at 37 °C for each time point. After incubation, the cells were washed twice with 20 units of heparin/PBS (0.5 mL) and lysed using cell lysis buffer M from Fujifilm Wako (Osaka, Japan) at 37 °C for 20 min. The radioactivity and fluorescence of the lysates was measured using a gamma counter and fluorescence microplate reader, respectively, and the protein concentration was determined using a Bradford protein assay kit (Bio-Rad, Hercules, CA, USA). Data are expressed as percentage uptake per milligram of protein (% uptake/mg protein).

[2] = system: 3T3-L1 cells; assay: Cellular uptake of FITC-CAPs; assay type: cell-based, mouse; settings: 1 μM; for Difference in FITC-CAP uptake between KB and 3T3-L1 cells (specificity for cancer cells): 2 h, ANOVA with Tukey's test
Method: as §1, §2

[3] = system: KB cells; assay: Confocal fluorescence microscopic imaging of FITC-CAPs; assay type: cell-based; settings: 10 µM, 1 h, confocal laser scanning microscope
Method: (§3) KB and 3T3-L1 cells were cultured on 8-well chambered cover glasses (Iwaki, Tokyo, Japan) and incubated with FITC-CAPs (10 μM) for 1 h. The medium was removed and cells were washed twice with ice-cold PBS containing heparin (20 units/mL) and twice with ice-cold PBS. Subsequently, the cells were incubated with Hoechst 33342 (2.5 µg/mL) for 30 min and then washed twice with ice-cold PBS. Fluorescent images were captured using a confocal laser scanning microscope (LSM710, Carl Zeiss Inc., Jena, Germany) with excitation wavelengths of 405 nm (UV laser) for Hoechst 33342 and 488 nm (Ar laser) for FITC-CAPs.

[4] = system: 3T3-L1 cells; assay: as above; assay type: cell-based, mouse; settings: 10 µM, 1 h, confocal laser scanning microscope
Method: as §3

[5] = In vitro stability in mouse plasma; settings: freshly prepared mouse plasma, 37 °C, 1 h, 10 μL tracer + 90 μL plasma, CH3CN precipitation, HPLC; mean (SEM) of three experiments
Method: The in vitro stability of ^67Ga-NOTA-CAPs in phosphate-buffered saline (PBS) and mouse plasma was analyzed according to a previously reported procedure [29, 30, 31]. In brief, each radiotracer (10 μL; 2.0–3.0 MBq) was added to PBS (90 μL) and incubated at 37 °C for 24 h or to freshly prepared mouse plasma (90 μL) and incubated at 37 °C for 1 h. […] The mouse plasma solution was added to ice-cold CH3CN (300 μL) and centrifuged at 9400 rcf for 4 min. The supernatant was filtered through a 0.22 μm membrane before HPLC analysis.

[6] = Biodistribution in tumor-bearing mice; settings: female, BALB/c nu/nu, mouse, iv, 10 kBq/100 uL, total radioactivity
Method: (§4) BALB/c nu/nu mice (female; 4 weeks old) were supplied by Japan SLC Inc. (Shizuoka, Japan). The mice were maintained in a room at a constant ambient temperature and a 12/12 h light/dark cycle, and they were given free access to food and water. Mice were subcutaneously injected on their right shoulders with approximately 1.0 × 10^7 KB cells. The tumors were allowed to reach 300–500 mm^3 (1‒2 weeks after inoculation) before biodistribution studies were performed.
(§5) The ^67Ga-NOTA-CAPs (10 kBq/100 μL) were intravenously injected into the mice via the tail vein. The mice were sacrificed at the designated time intervals, and the organs were dissected. The tissues were then weighed, and radioactivity was measured by automated gamma counting (n = 5).

[7] = system: KB tumor-bearing mice; assay: Biodistribution in tumor-bearing mice; settings: 30 min after administration, KB xenograft, i.v.; mean (SD) of 4–6 mice
Method: as §4, §5

[8] = system: KB tumor-bearing mice; settings: mouse, in vivo
Method: as §4, §5

[9] = in vivo; settings: female, BALB/c nu/nu, mouse, iv, 10 kBq/100 uL, total radioactivity
Method: as §4, §5

Compound	Cellular uptake of FITC-CAPs into KB cells [1]	Difference in FITC-CAP uptake between KB and 3T3-L1 cells (specificity for cancer cells) [2]	Cellular localization in KB cells [3]	Fluorescence signal in 3T3-L1 cells [4]	Cellular uptake of FITC-CAPs into 3T3-L1 cells ([2]; 37 °C, 2 h post-incubation, heparin/PBS wash, lysate fluorescence, mean ± SEM, n = 7–13)	In vitro stability in mouse plasma, percentage of remaining intact radiotracer [5]	tissue uptake at 2 h ([6]; kidney)	tissue to tissue ratio at 2 h ([6]; tumor/blood)	tissue to tissue ratio at 2 h ([6]; tumor/muscle)	Tumor uptake [7]	Tumor-to-blood ratio compared among tracers [8]	Tumor-to-muscle ratio compared among tracers [8]	tissue uptake at 2 h [9]	tissue uptake at 2 h ([6]; liver)
CC(C)[C@H](NC(=O)[C@H](Cc1c[nH]cn1)NC(=O)[C@@H](NC(=O)[C@H](Cc1c[nH]cn1)NC(=O)[C@@H](NC(=O)[C@H](Cc1c[nH]cn1)NC(=O)[C@@H](NC(=O)[C@@H]1CCCN1C(=O)[C@H]1CCCN1C(=O)[C@@H](NC(=O)[C@H](Cc1c[nH]cn1)NC(=O)[C@@H](NC(=O)[C@H](Cc1c[nH]cn1)NC(=O)[C@@H](NC(=O)[C@H](Cc1c[nH]cn1)NC(=O)[C@@H](NC(=O)[C@H](Cc1c[nH]cn1)NC(=O)CCCCCNC(=S)Nc1ccc2c(c1)C(=O)OC21c2ccc(O)cc2Oc2cc(O)ccc21)C(C)C)C(C)C)C(C)C)C(C)C)[C@@H](C)O)C(C)C)C(C)C)C(=O)N[C@@H](Cc1c[nH]cn1)C(N)=O [FITC-HV6] ({FITC-Ahx}-HVHVHVHV[dP]PTHVHVHVH-NH2)	19.0% ± 0.94 % uptake/mg protein	high selectivity for cancer cells	also accumulated in the cytoplasm and nucleus	low fluorescence signals	–	–	–	–	–	–	–	–	–	–
CC(C)[C@H](NC(=O)[C@H](CCCNC(=N)N)NC(=O)[C@@H](NC(=O)[C@H](CCCNC(=N)N)NC(=O)[C@@H](NC(=O)[C@H](CCCNC(=N)N)NC(=O)[C@@H](NC(=O)[C@@H]1CCCN1C(=O)[C@H]1CCCN1C(=O)[C@@H](NC(=O)[C@H](CCCNC(=N)N)NC(=O)[C@@H](NC(=O)[C@H](CCCNC(=N)N)NC(=O)[C@@H](NC(=O)[C@H](CCCNC(=N)N)NC(=O)[C@@H](NC(=O)[C@H](CCCNC(=N)N)NC(=O)CCCCCNC(=S)Nc1ccc2c(c1)C(=O)OC21c2ccc(O)cc2Oc2cc(O)ccc21)C(C)C)C(C)C)C(C)C)C(C)C)[C@@H](C)O)C(C)C)C(C)C)C(=O)N[C@@H](CCCNC(=N)N)C(N)=O [FITC-RV6] ({FITC-Ahx}-RVRVRVRV[dP]PTRVRVRVR-NH2)	36.0% ± 2.63 % uptake/mg protein	low specificity for cancer cells	also accumulated in the cytoplasm and nucleus	strong fluorescence signals	26.6% ± 2.18 % uptake/mg protein	–	–	–	–	–	–	–	–	–
CC(C)[C@H](NC(=O)[C@H](Cc1c[nH]cn1)NC(=O)[C@@H](NC(=O)[C@H](Cc1c[nH]cn1)NC(=O)[C@@H](NC(=O)[C@H](Cc1c[nH]cn1)NC(=O)[C@@H](NC(=O)[C@@H]1CCCN1C(=O)[C@H]1CCCN1C(=O)[C@@H](NC(=O)[C@H](Cc1c[nH]cn1)NC(=O)[C@@H](NC(=O)[C@H](Cc1c[nH]cn1)NC(=O)[C@@H](NC(=O)[C@H](Cc1c[nH]cn1)NC(=O)[C@@H](NC(=O)[C@H](Cc1c[nH]cn1)NC(=O)CN1CCN(CC(=O)O)CCN(CC(=O)O)CC1)C(C)C)C(C)C)C(C)C)C(C)C)[C@@H](C)O)C(C)C)C(C)C)C(=O)N[C@@H](Cc1c[nH]cn1)C(N)=O [^67Ga-NOTA-HV6, metal not drawn] ({NOTA}-HVHVHVHV[dP]PTHVHVHVH-NH2)	–	–	–	–	–	23.3 (0.75) %	23 %ID/g	3.8	4.01 ± 2.05	3.18% ± 0.36 % ID/g	–	–	–	–
CC(C)[C@H](NC(=O)[C@H](CCCCN)NC(=O)[C@@H](NC(=O)[C@H](CCCCN)NC(=O)[C@@H](NC(=O)[C@H](CCCCN)NC(=O)[C@@H](NC(=O)[C@@H]1CCCN1C(=O)[C@H]1CCCN1C(=O)[C@@H](NC(=O)[C@H](CCCCN)NC(=O)[C@@H](NC(=O)[C@H](CCCCN)NC(=O)[C@@H](NC(=O)[C@H](CCCCN)NC(=O)[C@@H](NC(=O)[C@H](CCCCN)NC(=O)CN1CCN(CC(=O)O)CCN(CC(=O)O)CC1)C(C)C)C(C)C)C(C)C)C(C)C)[C@@H](C)O)C(C)C)C(C)C)C(=O)N[C@@H](CCCCN)C(N)=O [^67Ga-NOTA-KV6, metal not drawn] ({NOTA}-KVKVKVKV[dP]PTKVKVKVK-NH2)	–	–	–	–	–	–	118 %ID/g	7.7	5.05 ± 1.51	4.46% ± 0.58 % ID/g	significantly higher	significantly greater	32.6 %ID/g	–
CC(C)[C@H](NC(=O)[C@H](CCCNC(=N)N)NC(=O)[C@@H](NC(=O)[C@H](CCCNC(=N)N)NC(=O)[C@@H](NC(=O)[C@H](CCCNC(=N)N)NC(=O)[C@@H](NC(=O)[C@@H]1CCCN1C(=O)[C@H]1CCCN1C(=O)[C@@H](NC(=O)[C@H](CCCNC(=N)N)NC(=O)[C@@H](NC(=O)[C@H](CCCNC(=N)N)NC(=O)[C@@H](NC(=O)[C@H](CCCNC(=N)N)NC(=O)[C@@H](NC(=O)[C@H](CCCNC(=N)N)NC(=O)CN1CCN(CC(=O)O)CCN(CC(=O)O)CC1)C(C)C)C(C)C)C(C)C)C(C)C)[C@@H](C)O)C(C)C)C(C)C)C(=O)N[C@@H](CCCNC(=N)N)C(N)=O [^67Ga-NOTA-RV6, metal not drawn] ({NOTA}-RVRVRVRV[dP]PTRVRVRVR-NH2)	–	–	–	–	–	27.4 (2.94) %	26.9 %ID/g	8	3.35 ± 0.64	4.76% ± 1.50 % ID/g	–	–	–	53.8 %ID/g
